Broadly, the EC50 is the concentration at which the effect is half-maximal. A high value points to lower potency in that assay. What is called Emax is the maximal effect, on the per cent scale that the assay sets.

What all share (format): cell-based
Test [1] has as its target T1, MCHR2 I292(7.39)A (Homo sapiens, UniProt Q969V1, I292A).
T1 construct: expressed in transfected cells; host or cells: AD293
Briefly: IP-One IP1 accumulation assay, MCHR2 I292A. The conditions noted are these: n = 3 in triplicate. The text has this: (§1) The gene sequences encoding human MCHR1 (residues 70‒405) and MCHR2 (residues 1‒331, with L256^6.40Y mutation) were subcloned into pFastBac vector (Invitrogen) with an N-terminal haemagglutinin signal peptide (HA) and a thermostabilized BRIL fusion, followed by a C-terminal 15-amino acid linker, a LgBiT subunit and two MBPs to facilitate receptor expression and stability. The Gαi construct was designed with dominant-negative mutations S47N, G203A, A326S, and E245A to decrease the affinity of nucleotide-binding and stable Gαβγ complex. The mini-Gαq construct was designed with the C-terminal α-helix (αH5) of Gαq, which is critical for G protein coupling selectivity. The core of the construct, known as the Ras domain, is derived from Gαs. This design choice was made to enable the binding of the nanobody Nb35, which stabilizes the complex for cryo-EM analysis. […]
(§2) IP1 accumulation assay was applied for the detection of the downstream Gαq signal of MCHR2 using the IP-One HTRF kit (Cisbio). […] Before measurement, the samples were incubated at RT for 30 min and measured with EnVision multi-plate reader (PerkinElmer).
(§3) Concentration–response curves were evaluated with a three-parameter logistic equation. The significance was determined with one-way ANOVA with Tukey’s test, and P < 0.05 vs wild type was considered statistically significant.

Test [2] deals with T2, MCHR2 V194(5.35)A (Homo sapiens, UniProt Q969V1, V194A).
T2 construct: expressed in transfected cells; host or cells: AD293
T2 sequence (Q969V1 whole entry V194A): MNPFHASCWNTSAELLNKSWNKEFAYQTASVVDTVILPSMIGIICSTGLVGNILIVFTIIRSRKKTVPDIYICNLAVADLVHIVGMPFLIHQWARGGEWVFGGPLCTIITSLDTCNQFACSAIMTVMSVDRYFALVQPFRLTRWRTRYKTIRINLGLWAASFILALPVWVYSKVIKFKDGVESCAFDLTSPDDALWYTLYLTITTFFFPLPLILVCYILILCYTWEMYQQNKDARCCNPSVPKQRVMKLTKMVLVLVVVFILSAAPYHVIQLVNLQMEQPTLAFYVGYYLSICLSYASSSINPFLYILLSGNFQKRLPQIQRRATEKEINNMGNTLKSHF
Briefly: IP-One IP1 accumulation assay, MCHR2 V194A. To be noted: n = 3 in triplicate.
Excerpt: as §1, §2, §3

For test [3], the target named is T3, MCHR2 Y267(6.51)A (Homo sapiens, UniProt Q969V1, Y267A).
T3 construct: expressed in transfected cells; host or cells: AD293
T3 sequence (Q969V1 whole entry Y267A): as the sequence (Q969V1 whole entry V194A) above, with A194V, Y267A counted along it
Briefly: IP-One IP1 accumulation assay, MCHR2 Y267A. The conditions noted are these: n = 3 in triplicate.
Excerpt: as §1, §2, §3

Test [4] addresses T4, MCHR2 D179(ECL2)A (Homo sapiens, UniProt Q969V1, D179A).
T4 construct: expressed in transfected cells; host or cells: AD293
Briefly: IP-One IP1 accumulation assay, MCHR2 D179A. To be noted: n = 3 in triplicate.
Excerpt: as §1, §2, §3

Test [5] deals with T5, MCHR2 Y288(7.35)A (Homo sapiens, UniProt Q969V1, Y288A).
T5 construct: expressed in transfected cells; host or cells: AD293
T5 sequence (Q969V1 whole entry Y288A): as the sequence (Q969V1 whole entry V194A) above, with A194V, Y288A counted along it
Briefly: IP-One IP1 accumulation assay, MCHR2 Y288A. The conditions noted are these: n = 3 in triplicate.
Excerpt: as §1, §2, §3

Test [6] deals with T6, MCHR2 G96(ECL1)A (Homo sapiens, UniProt Q969V1, G96A).
T6 construct: expressed in transfected cells; host or cells: AD293
T6 sequence (Q969V1 whole entry G96A): as the sequence (Q969V1 whole entry V194A) above, with G96A, A194V counted along it
Briefly: IP-One IP1 accumulation assay, MCHR2 G96A. The conditions noted are these: n = 3 in triplicate.
Excerpt: as §1, §2, §3

In test [7] the target is T7, MCHR1 Q171(2.63)A (Homo sapiens, UniProt Q99705, Q102A).
T7 construct: expressed in transfected cells; host or cells: HEK293
T7 sequence (Q99705 whole entry Q102A): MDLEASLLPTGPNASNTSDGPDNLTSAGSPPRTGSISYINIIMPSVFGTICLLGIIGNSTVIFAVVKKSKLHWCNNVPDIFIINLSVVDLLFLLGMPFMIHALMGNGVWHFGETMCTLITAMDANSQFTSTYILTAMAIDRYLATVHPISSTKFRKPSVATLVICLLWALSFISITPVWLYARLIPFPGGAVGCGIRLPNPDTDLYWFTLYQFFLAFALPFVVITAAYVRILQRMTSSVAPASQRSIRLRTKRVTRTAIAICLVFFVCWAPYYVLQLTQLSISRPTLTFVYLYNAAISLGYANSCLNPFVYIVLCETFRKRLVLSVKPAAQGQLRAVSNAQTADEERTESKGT
Briefly: GloSensor cAMP assay, MCHR1 Q171A. To be noted: HEK293, mean ± S.E.M., n = 3 in triplicate. The text has this: (§4) The gene sequences encoding human MCHR1 (residues 70‒405) and MCHR2 (residues 1‒331, with L256^6.40Y mutation) were subcloned into pFastBac vector (Invitrogen) with an N-terminal haemagglutinin signal peptide (HA) and a thermostabilized BRIL fusion, followed by a C-terminal 15-amino acid linker, a LgBiT subunit and two MBPs to facilitate receptor expression and stability. The Gαi construct was designed with dominant-negative mutations S47N, G203A, A326S, and E245A to decrease the affinity of nucleotide-binding and stable Gαβγ complex. The mini-Gαq construct was designed with the C-terminal α-helix (αH5) of Gαq, which is critical for G protein coupling selectivity. The core of the construct, known as the Ras domain, is derived from Gαs. This design choice was made to enable the binding of the nanobody Nb35, which stabilizes the complex for cryo-EM analysis. […] Rat Gβ1 was constructed with a N-terminal 16× His-tag for purification and a C-terminal HiBiT to form a NanoBiT with LgBiT. […] The wild-type and mutants of MCHR1 and MCHR2 were constructed into the pcDNA6.0 vector […] for functional assays.
(§5) GloSensor cAMP assay was used to detect the downstream Gαi signal of MCHR1 using GloSensor cAMP Reagent (Promega).
In general terms: Changes in cAMP serve as a functional read-out for many G protein-coupled receptors.

The target of test [8] is T8, MCHR2 Q92(2.63)A (Homo sapiens, UniProt Q969V1, Q92A).
T8 construct: expressed in transfected cells; host or cells: AD293
T8 sequence (Q969V1 whole entry Q92A): as the sequence (Q969V1 whole entry V194A) above, with Q92A, A194V counted along it
Briefly: IP-One IP1 accumulation assay, MCHR2 Q92A. To be noted: n = 3 in triplicate.
Excerpt: as §1, §2, §3

Test [9] addresses T9, MCHR1 D192(3.32)A (Homo sapiens, UniProt Q99705, D123A).
T9 construct: expressed in transfected cells; host or cells: HEK293
Briefly: GloSensor cAMP assay, MCHR1 D192A. The conditions noted are these: HEK293, mean ± S.E.M., n = 3 in triplicate.
Excerpt: as §4, §5

Test [10] concerns the target T10, MCHR2 Q117(3.36)A (Homo sapiens, UniProt Q969V1, Q117A).
T10 construct: expressed in transfected cells; host or cells: AD293
Briefly: IP-One IP1 accumulation assay, MCHR2 Q117A. The conditions noted are these: n = 3 in triplicate.
Excerpt: as §1, §2, §3

Test [11] addresses T11, MCHR1 P354(ECL3)A (Homo sapiens, UniProt Q99705, P285A).
T11 construct: expressed in transfected cells; host or cells: HEK293
Briefly: GloSensor cAMP assay, MCHR1 P354A. To be noted: HEK293, mean ± S.E.M., n = 3 in triplicate.
Excerpt: as §4, §5

For test [12], the target named is T12, MCHR2 WT (Homo sapiens, UniProt Q969V1).
T12 construct: expressed in transfected cells; host or cells: AD293
T12 sequence (Q969V1 whole entry): as the sequence (Q969V1 whole entry V194A) above, with A194V counted along it
Briefly: IP-One IP1 accumulation assay, MCHR2 WT (Gαq). The conditions noted are these: AD293, IP-One HTRF, mean ± S.E.M.
Excerpt: as §1, §2, §3
On the technique in general: In TR-FRET formats the signal depends on donor and acceptor labels being close together.

Where [13] appears, read: AD293, IP-One HTRF, 37 °C 1 h, mean ± S.E.M., P < 0.0001 vs WT.

Structures are written as SMILES.

T1 sequence (Q969V1 whole entry I292A): as the sequence (Q969V1 whole entry V194A) above, with A194V, I292A counted along it
T4 sequence (Q969V1 whole entry D179A): as the sequence (Q969V1 whole entry V194A) above, with D179A, A194V counted along it
T10 sequence (Q969V1 whole entry Q117A): as the sequence (Q969V1 whole entry V194A) above, with Q117A, A194V counted along it
T11 sequence (Q99705 whole entry P285A): as the sequence (Q99705 whole entry Q102A) above, with A102Q, P285A counted along it
T9 sequence (Q99705 whole entry D123A): as the sequence (Q99705 whole entry Q102A) above, with A102Q, D123A counted along it

In the case of `CSCC[C@@H]1NC(=O)[C@@H](NC(=O)[C@H](CCCNC(=N)N)NC(=O)[C@H](CC(C)C)NC(=O)[C@H](CCSC)NC(=O)[C@H](CC(=O)O)NC(=O)[C@H](Cc2ccccc2)NC(=O)[C@@H](N)CC(=O)O)CSSC[C@@H](C(=O)N[C@@H](Cc2c[nH]c3ccccc23)C(=O)N[C@@H](CCC(N)=O)C(=O)N[C@H](C(=O)O)C(C)C)NC(=O)[C@@H]2CCCN2C(=O)[C@H](CCCNC(=N)N)NC(=O)[C@H](Cc2ccc(O)cc2)NC(=O)[C@H](C(C)C)NC(=O)[C@H](CCCNC(=N)N)NC(=O)CNC(=O)[C@H](CC(C)C)NC1=O` [MCH, Melanin-concentrating hormone], the EC50 is 129 nM in test [1] (setting [13]); 33.1 nM in [2] (setting [13]); 200 nM in test [3] (setting [13]); 1290 nM in test [4] (setting [13]); 1230 nM in test [5] (setting [13]); 15.5 nM in [6] (AD293, IP-One HTRF, 37 °C 1 h, mean ± S.E.M., P 0.0012 vs WT). Also, the EC50 in test [8] (setting [13]) was 9120 nM; in test [10] (AD293, IP-One HTRF, 37 °C 1 h, mean ± S.E.M., P 0.0352 vs WT), 10.7 nM; in test [12] (37 °C 1 h, three independent experiments in triplicate), 3.16 nM. Besides, the Emax in test [1] (AD293, mean ± S.E.M.) was 92 ± 2%; in test [2] (AD293, mean ± S.E.M.), 98 ± 1%; in [3] (AD293, mean ± S.E.M.) it was 92 ± 1%; in test [4] (AD293, mean ± S.E.M.) it was 85%; in test [5] (AD293, mean ± S.E.M.), 84 ± 2%; in test [6] (AD293, mean ± S.E.M.) it was 96%. The Emax is 57 ± 6% in test [7]; 25 ± 2% in [8] (AD293, mean ± S.E.M.); 40 ± 7% in test [9]; 96 ± 2% in [10] (AD293, mean ± S.E.M.); 109 ± 1% in test [11]; 100% in [12] (normalized by WT receptor, n = 3 in triplicate).

These data come from article PMC11074101 (Cell Discovery, 2024).
